The assay concerns HSV-2 virus (MS strain). Kind of assay: HSV-2 Cellomics Assay (immunofluorescence of HSV protein gD). The assay is classed as cell-based. As to the method: Compounds were tested for their ability to inhibit HSV-2 replication by monitoring the expression of the HSV protein gD using a high-throughput immunofluorescence-based assay. 10-dose, 3-fold serial dilutions of compounds were prepared at starting concentrations of 0.2 or 2 mM in 100% DMSO. 250 nl of compounds were spotted in quadruplicates onto black collagen-coated 384-well microplates with clear bottom (Greiner cat #781956) using a Labcyte ECHO acoustic dispenser. The final starting concentration in the assay was either […]. DMSO (no compound) and pritelivir were included on each microplate as negative and positive controls, respectively.
ARPE-19 cells (ATCC cat #CRL-2302) were maintained DMEM/F-12 Glutamax medium (Thermo Fisher Scientific cat #10565018) supplemented with 10% FBS (Corning cat #35-011-CV) and 1% Penicillin-Streptomycin (cat #30-002-CI). Prior to confluence, cells were transferred to a centrifuge tube and spun for 5 minutes at 1000 rpm. Cells were resuspended in assay medium (DMEM/F-12 Glutamax, 2% FBS, 1% Penicillin-Streptomycin) and counted. Cell density was adjusted to 150,000 cells/ml and infected with HSV-2 virus (MS strain, ATCC cat #VR-540) at a MOI of 0.06 in a 50 ml conical tube for 1 hour under constant rocking. Cells were then spun for 5 minutes at 1000 rpm and the media replaced with assay medium containing either 2% FBS or 10% human serum (EMD Millipore cat #S1-100ML). 50 μl of the infection suspension were added into microplate wells that were pre-spotted with compounds (7,500 cells per well). Plates were incubated for 16 hours at 37° C.
Cell culture medium was aspirated using a Biomek Fx and 50 μl of a paraformaldehyde solution (Electron Microscopy Sciences cat #15712-5) diluted to 4% in DPBS (Corning cat #21-031-CM) were added per well. After a 30-minute incubation at room temperature, plates were washed 4 times with 100 μl/well of PBS using a Biotek plate washer. A 1:500 solution of primary antibody (anti-HSV gD, Virusys cat #P1103) was prepared in permeabilization buffer (Invitrogen cat #00-8333-56) and 50 μl were added into wells. After a 1-hour incubation at room temperature, 50 μl of a 1:1000 solution of secondary antibody (Alexa Fluor 488 goat anti-mouse, Thermo Fisher Scientific cat #A11001) and DAPI (Thermo Fisher Scientific cat #62248) in permeabilization buffer were added into wells and plates were incubated in the dark at room temperature for 1 hour. Plates were washed 4 times again and 50 μl of DPBS were added to all wells prior to sealing the plates with a black adhesive seal. Fluorescence was measured on a Cellomics plate reader.
Data analysis was carried out using the Thermo Scientific HCS Studio software. Briefly, cells were identified using the DAPI nuclear stain and thresholds were set to filter cells out based on shape and size. A second threshold based on green fluorescence intensity (detection of HSV-2 gD) was set to identify HSV-2 infected cells. Data was reported as the average fluorescence intensity of HSV-2 infected cells. EC50 values were defined as the compound concentration that caused a 50% decrease in the average fluorescence intensity and was calculated using a sigmoidal dose-response model to generate curve fits.

Where [1] appears, read: Human alphaherpesvirus 2, HSV-2 (MS strain, MOI 0.06) infected ARPE-19 cells, assay medium containing 2% FBS, 16 hours, read-out: EC50-HSV2-FBS.
Setting [2] is: Human alphaherpesvirus 2, HSV-2 (MS strain, MOI 0.06) infected ARPE-19 cells, assay medium containing 10% human serum, 16 hours, read-out: EC50-HSV2-10% Human Serum.

Read-outs that look alike come from different tables or passages of the source.

As to `CCNS(=O)(=O)c1cc2c(cc1F)CCN2C(=O)[C@@H]1Cc2ccc(-c3ccccn3)cc2C1` [Example 30, (R)—N-ethyl-5-fluoro-1-(5-(pyridin-2-yl)-2,3-dihydro-1H-indene-2-carbonyl)indoline-6-sulfonamide], the EC50 was 5 nM under setting [1] and 304 nM under setting [2]. On the same counts, the results for `CCNS(=O)(=O)c1cc2c(cc1F)CCN2C(=O)[C@H]1Cc2cc(-c3ccccn3)ccc2O1` [Example 31, (R)—N-ethyl-5-fluoro-1-(5-(pyridin-2-yl)-2,3-dihydrobenzofuran-2-carbonyl)indoline-6-sulfonamide] are 10 nM and 570 nM. On to `CCCC(=O)NS(=O)(=O)c1cc2c(cc1F)C[C@@H](C)N2C(=O)[C@@H]1Cc2ccc(-c3ccccn3)cc2C1` [Example 32, N—(((R)-5-fluoro-2-methyl-1-((R)-5-(pyridin-2-yl)-2,3-dihydro-1H-indene-2-carbonyl)indolin-6-yl)sulfonyl)butyramide], for which the EC50 under setting [1] came to 231 nM and the 50% effective concentration (EC50) under setting [2] came to 2380 nM.

As for `Cc1nc(N(C)C(=O)Cc2ccc(-c3ccccn3)cc2)sc1S(N)(=O)=O` [pritelivir, reference compound], the concentration giving a half-maximal response (EC50) (Human alphaherpesvirus 2, ARPE-19, read-out: EC50 in HSV-2 Cellomics assay) worked out at 150 nM.

As usually defined, the EC50 is the concentration that produces a half-maximal response.

(Values after US20250171413A1, “ANTIVIRAL INDOLINYL COMPOUNDS AND USES THEREOF” (Gilead Sciences, Inc., priority 2023, published 2025).)
